From patent publication US11560372B2, “Heterocyclic compounds useful as modulators of acetylcholine receptors” (TAKEDA PHARMACEUTICAL COMPANY LIMITED, priority 2017, dated 2023) come the findings set out here.

The target of data set [1] is T1, human M1 receptor (hCHRM1) (Homo sapiens, UniProt P11229).
T1 construct: expressed in transfected cells
T1 sequence (P11229 1-460): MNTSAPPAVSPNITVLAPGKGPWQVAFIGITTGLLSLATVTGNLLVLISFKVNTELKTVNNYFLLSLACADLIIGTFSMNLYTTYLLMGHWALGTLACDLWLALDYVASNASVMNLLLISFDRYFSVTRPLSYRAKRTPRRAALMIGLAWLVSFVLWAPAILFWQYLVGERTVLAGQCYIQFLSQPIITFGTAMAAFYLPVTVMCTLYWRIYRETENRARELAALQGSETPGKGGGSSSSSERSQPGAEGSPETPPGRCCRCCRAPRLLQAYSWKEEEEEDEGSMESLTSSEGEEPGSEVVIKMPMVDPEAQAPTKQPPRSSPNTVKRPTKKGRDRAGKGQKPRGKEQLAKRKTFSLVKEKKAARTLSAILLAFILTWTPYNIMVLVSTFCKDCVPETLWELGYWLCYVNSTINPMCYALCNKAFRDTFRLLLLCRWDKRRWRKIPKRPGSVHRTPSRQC
The experiment in a line: Measurement of M1 receptor positive allosteric modulator (M1PAM) activity, calcium fluorescence in CHO-K1 cells. Type of data set: cell-based. The settings on record: for activity (%) at 10 μM: 10 μM test compound, 100% = acetylcholine final concentration 1 μM, 0% = DMSO; for EC50: inflection point of concentration-dependent curve, in the presence of acetylcholine at EC20 concentration (final 0.8-1.0 nM), read-out: IP value. On the procedure: Measurement of M1 Receptor Positive Allosteric Modulator (M1PAM) Activity
The activity of a test compound in the presence of acetylcholine at EC20 concentration (final concentration 0.8-1.0 nM), which affords an action corresponding to about 20% of the maximum activity, was measured as PAM activity. The method is as follows. CHO-K1 cells stably expressing a human M1 receptor (hCHRM1) were plated on a 384-well black clear bottom plate (BD Falcon) at 5,000 cells/well, and cultured in an incubator at 37° C., 5% CO2 for 1 day. The medium in the cell plate was removed, and assay buffer A containing calcium indicator (Recording medium (DOJINDO LABORATORIES), 0.1% BSA (Wako Pure Chemical Industries, Ltd.), 2.5 μg/mL Fluo-4 AM (DOJINDO LABORATORIES), 0.08% Pluronic F127 (DOJINDO LABORATORIES), 1.25 mM probenecid (DOJINDO LABORATORIES)) was added at 30 μL/well. The cells were left standing in the incubator at 37° C., 5% CO2 for 30 min, and further left standing at room temperature for 30 min. A test compound prepared by diluting with assay buffer B (HBSS (Invitrogen), 20 mM HEPES (Invitrogen), 0.1% BSA) containing 3.2-4.0 nM acetylcholine was added at 10 μL/well, and the fluorescence was measured by FDSS/pCELL (Hamamatsu Photonics K.K.) for 1 min every for 1 second. With the definition that the amount of change in the fluorescence on addition of acetylcholine (final concentration 1 μM) is 100% and that on addition of DMSO instead of a test compound is 0%, the activity (%) of the test compound was calculated, and the inflection point in the concentration-dependent curve of the test compound was calculated as IP values.

A further data set has as its target T2, MDR1 (Homo sapiens, UniProt P08183).
T2 construct: expressed in transfected cells
The experiment in a line: MDR1 membrane permeability test. Type of data set: in vitro ADME. The settings on record: pH 7.4, efflux ratio (ER), Papp B to A / A to B, human MDR1-expressing LLC-PK1 cells, read-out: MDR1 substrate screening 1 μM (MDRSUB1)/Ratio (NUMBER). The method in brief: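 Human MDR1-expressing LLC-PK1 cells were grown for 3 days on 96-well polyethylene terephthalate Transwell supports (0.4 μm pores, 0.143 cm^2) seeded at 3.45×10^4 cells/well. After a 30 min preincubation in M199 medium with 10 mmol/L HEPES and 1% BSA (pH 7.4), drug was added apically or basolaterally. After 1 hr at 37° C, the opposite side was sampled and analyzed by LC-MS/MS. Efflux ratio was calculated from Papp B to A versus A to B.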

T2 sequence (P08183 whole entry): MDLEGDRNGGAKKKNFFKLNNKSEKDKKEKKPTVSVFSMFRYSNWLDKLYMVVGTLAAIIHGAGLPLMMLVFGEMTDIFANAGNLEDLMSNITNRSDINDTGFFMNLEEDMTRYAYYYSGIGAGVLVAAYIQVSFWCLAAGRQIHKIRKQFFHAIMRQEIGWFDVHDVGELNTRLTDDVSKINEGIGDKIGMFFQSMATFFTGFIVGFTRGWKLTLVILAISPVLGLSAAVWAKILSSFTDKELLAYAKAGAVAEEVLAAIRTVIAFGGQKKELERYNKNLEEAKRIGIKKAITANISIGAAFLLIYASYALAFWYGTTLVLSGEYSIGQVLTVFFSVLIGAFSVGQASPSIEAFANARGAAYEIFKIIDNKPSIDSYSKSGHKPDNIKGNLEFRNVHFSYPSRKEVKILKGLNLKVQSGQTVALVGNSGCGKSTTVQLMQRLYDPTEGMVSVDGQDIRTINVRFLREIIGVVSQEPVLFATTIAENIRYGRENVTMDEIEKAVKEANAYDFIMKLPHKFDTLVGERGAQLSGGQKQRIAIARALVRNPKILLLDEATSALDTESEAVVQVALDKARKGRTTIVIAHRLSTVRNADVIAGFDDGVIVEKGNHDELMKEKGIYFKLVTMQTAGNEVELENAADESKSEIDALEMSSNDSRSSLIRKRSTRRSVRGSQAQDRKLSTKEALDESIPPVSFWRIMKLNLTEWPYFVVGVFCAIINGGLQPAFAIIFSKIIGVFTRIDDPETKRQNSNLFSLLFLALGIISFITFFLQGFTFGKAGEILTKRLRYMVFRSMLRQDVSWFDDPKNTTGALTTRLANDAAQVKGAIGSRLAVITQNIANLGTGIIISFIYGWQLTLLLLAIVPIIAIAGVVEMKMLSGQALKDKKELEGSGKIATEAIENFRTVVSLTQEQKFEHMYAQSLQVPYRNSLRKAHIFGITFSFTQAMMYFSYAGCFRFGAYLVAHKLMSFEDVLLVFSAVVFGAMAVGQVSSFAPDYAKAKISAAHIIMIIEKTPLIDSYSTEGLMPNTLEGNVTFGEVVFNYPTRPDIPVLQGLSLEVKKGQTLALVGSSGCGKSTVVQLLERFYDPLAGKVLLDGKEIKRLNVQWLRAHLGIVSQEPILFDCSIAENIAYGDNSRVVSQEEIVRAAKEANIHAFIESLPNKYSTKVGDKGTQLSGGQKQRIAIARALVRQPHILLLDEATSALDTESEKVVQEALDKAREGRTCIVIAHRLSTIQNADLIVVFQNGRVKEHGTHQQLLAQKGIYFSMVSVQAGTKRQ

Take `COC1CN(C(=O)c2ccc(Cc3cc4c(=O)n([C@H]5CCOC[C@@H]5O)cnc4c(C)c3C)cc2)C1` [Example 41, 1,5-anhydro-2,3-dideoxy-3-(6-(4-((3-methoxyazetidin-1-yl)carbonyl)benzyl)-7,8-dimethyl-4-oxoquinazolin-3 (4H)-yl)-L-threo-pentitol]: in data set [1], the “activity (%) at 10 μM” value is on record as 108% and the EC50 stood at 11 nM. In addition, the efflux ratio at 1 hr, 1 μM on MDR1 amounted to 13.
For the molecule `COCCNC(=O)c1ccc(Cc2cc3c(=O)n([C@H]4CCOC[C@@H]4O)cnc3c(C)c2C)cc1` [Example 49, 1,5-anhydro-2,3-dideoxy-3-(6-(4-((2-methoxyethyl)carbamoyl)benzyl)-7,8-dimethyl-4-oxoquinazolin-3 (4H)-yl)-L-threo-pentitol], in data set [1], the “activity (%) at 10 μM” value is listed as 101% and the EC50 is 1.1 nM. Also, the efflux ratio at 1 hr, 1 μM at MDR1 worked out at 20.
For `Cc1c(Cc2ccc(-c3cnn(C4CC4)c3)nc2)cc2c(=O)n([C@H]3CCOC[C@@H]3O)cnc2c1C` [Example 56, 1,5-anhydro-3-(6-((6-(1-cyclopropyl-1H-pyrazol-4-yl)pyridin-3-yl)methyl)-7,8-dimethyl-4-oxoquinazolin-3 (4H)-yl)-2,3-dideoxy-L-threo-pentitol], in data set [1], the “activity (%) at 10 μM” value amounted to 107% and the EC50 is 2.1 nM. In addition, the efflux ratio at 1 hr, 1 μM at MDR1 is 4.9.
As to `CNC(=O)c1ccc(Cc2cc3c(=O)n([C@H]4CCOC[C@@H]4O)cnc3c(C)c2C)cc1` [Example 18, 1,5-anhydro-2,3-dideoxy-3-(7,8-dimethyl-6-(4-(methylcarbamoyl)benzyl)-4-oxoquinazolin-3(4H)-yl)-L-threo-pentitol], in data set [1], the “activity (%) at 10 μM” value is 106% and the EC50 came out at 1 nM. The efflux ratio at 1 hr, 1 μM on MDR1 turned out to be 24.
For the molecule `Cc1c(Cc2ccc(-c3cnn(C)c3)cc2)cc2c(=O)n([C@H]3CCOC[C@@H]3O)cnc2c1F` [Example 24, 1,5-anhydro-2,3-dideoxy-3-(8-fluoro-7-methyl-6-(4-(1-methyl-1H-pyrazol-4-yl)benzyl)-4-oxoquinazolin-3(4H)-yl)-L-threo-pentitol], in data set [1], the “activity (%) at 10 μM” value worked out at 108% and the EC50 was found to be 3.7 nM. Besides, the efflux ratio at 1 hr, 1 μM at MDR1 was found to be 3.4.
The matching figures for `Cc1c(Cc2ccc(C(=O)NCC3(O)CC3)c(F)c2)cc2c(=O)n([C@H]3CCOC[C@@H]3O)cnc2c1C` [Example 76, 1,5-anhydro-2,3-dideoxy-3-(6-(3-fluoro-4-(((1-hydroxycyclopropyl)methyl)-carbamoyl)benzyl)-7,8-dimethyl-4-oxoquinazolin-3 (4H)-yl)-L-threo-pentitol]: 106%, 1.9 nM and 15.
For the molecule `CCOCCNC(=O)c1ccc(Cc2cc3c(=O)n([C@H]4CCOC[C@@H]4O)cnc3c(C)c2C)cc1F` [Example 85, 1,5-anhydro-2,3-dideoxy-3-(6-(4-((2-ethoxyethyl)carbamoyl)-3-fluorobenzyl)-7,8-dimethyl-4-oxoquinazolin-3(4H)-yl)-L-threo-pentitol], in data set [1], the “activity (%) at 10 μM” value was 107% and the EC50 worked out at 2.1 nM. Further, the efflux ratio at 1 hr, 1 μM at MDR1 was determined as 10.
For `COCCn1cc(-c2ccc(Cc3cc4c(=O)n([C@H]5CCOC[C@@H]5O)cnc4c(C)c3C)cn2)cn1` [Example 73, 1,5-anhydro-2,3-dideoxy-3-(6-((6-(1-(2-methoxyethyl)-1H-pyrazol-4-yl)pyridin-3-yl)methyl)-7,8-dimethyl-4-oxoquinazolin-3(4H)-yl)-L-threo-pentitol] the same measures were 109%, 1.4 nM and 18.
In the case of `Cc1c(Cc2ccc(C(=O)NCCS(C)(=O)=O)c(F)c2)cc2c(=O)n([C@H]3CCOC[C@@H]3O)cnc2c1C` [Example 84, 1,5-anhydro-2,3-dideoxy-3-(6-(3-fluoro-4-((2-(methylsulfonyl)ethyl)-carbamoyl)benzyl)-7,8-dimethyl-4-oxoquinazolin-3 (4H)-yl)-L-threo-pentitol], in data set [1], the “activity (%) at 10 μM” value is given as 106% and the EC50 stood at 1.9 nM. In addition, on MDR1, the efflux ratio at 1 hr, 1 μM was found to be 11.
The matching figures for `Cc1c(Cc2ccc(-c3cn(C)nn3)cc2)cc2c(=O)n([C@H]3CCOC[C@@H]3O)cnc2c1C` [Example 8, 1,5-anhydro-2,3-dideoxy-3-(7,8-dimethyl-6-(4-(1-methyl-1H-1,2,3-triazol-4-yl)benzyl)-4-oxoquinazolin-3(4H)-yl)-L-threo-pentitol]: 97%, 1.4 nM and 4.8.
